Patent publication US8222380B2, “Amorphous telithromycin compound” (Sandoz AG, priority 2006, dated 2012)

How the values were obtained:
[1] = Stability of the amorphous state on storage judged by XRPD; assay type: physicochemical; settings: after 8 weeks of storage
Description: The invention therefore relates to a stable amorphous form of telithromycin (3-De[(2,6-dideoxy-3-C-methyl-3-O-methyl-α-L-ribohexopyranosyl)oxy]-11,12-dideoxy-6-O-methyl-3-oxo-12,11-[oxycarbonyl[[4-[4-(3-pyridinyl)-1H-imidazol-1-yl]butyl]imino]]erythromycin). […] The stable amorphous form of telithromycin as obtained according to example 2 was analyzed by X-ray powder diffraction diagrams, measured using an AXS-Bruker D-8 diffractometer (Cu-radiation, Bragg Brentano Optics, 40 kV, 40 mA, steps 0.01°, time 2 seconds, cut-off 40°, standard sample carrier).

[2] = Stress storage in closed vial, impurity increase by HPLC; assay type: physicochemical; settings: closed vial at 80° C. for 24 hours; spray-dried sample of Example 1
Description: The sample was stressed in a closed vial at 80° C. for 24 hours. An increase in impurities of 0.2 area % was observed when measured by HPLC under the following conditions: column: symmetry C18 3.5 μm; eluent: buffer pH 4.4 (4.76 g KH2PO4 in 2000 ml H2O adjusted to pH 4.4 using H3PO4), acetonitrile (2000 ml buffer+666 ml acetonitrile); measurement at a wavelength of 205 nm; inj. Vol […]; temperature 40° C.

## CCC1OC(=O)[C@H](C)C(=O)[C@H](C)[C@@H](OC2OC(C)CC(N(C)C)C2O)[C@](C)(OC)C[C@@H](C)C(=O)[C@H](C)[C@H]2N(CCCCn3cnc(-c4cccnc4)c3)C(=O)O[C@]12C (stereo partly drawn) [amorphous telithromycin, 3-De[(2,6-dideoxy-3-C-methyl-3-O-methyl-α-L-ribohexopyranosyl)oxy]-11,12-dideoxy-6-O-methyl-3-oxo-12,11-[oxycarbonyl[[4-[4-(3-pyridinyl)-1H-imidazol-1-yl]butyl]imino]]erythromycin]
[1]
  presence of crystalline telithromycin as judged by X-ray powder diffractogram: no signs of the presence of crystalline telithromycin
[2]
  increase in impurities measured by HPLC: 0.2 area %
